Assays:
PBMCs = assay: Flow cytometry of ACE2 and TMPRSS2 cell surface expression in PBMCs stimulated ex vivo; format: cell-based, human; conditions: mean±SEM
Description: Mouse IgG1 antibodies were used as the isotype controls.
PBMCs were ex vivo cultured with R848, LPS or medium alone for 4 hrs, 24 hrs, and 48 hrs. Representative flow cytometric analysis of surface expression of ACE2 and TMPRSS2 in cDC.
PBMCs were ex vivo cultured with PMA plus ionomycin for 4 h. Representative flow cytometric analysis of surface expression of TMPRSS2 in CD4+, CD8+ and total T cells.
For ex vivo stimulation assays analyzed by flow cytometry, fresh PBMCs were isolated from CPT tubes using a standard protocol. Briefly, whole blood cells were diluted with Ca^2+-free and Mg^2+-free PBS buffer (Corning, NY) containing 2% fetal bovine serum (FBS, R&D Systems, Minneapolis, MN) and 2 mM EDTA (VWR Life Science, Radnor, PA) and slowly overlaid onto Ficoll-Paque™ (GE healthcare, Chicago, IL) at 2:1 ratio by volume. The samples were centrifuged at RT for 20 min at 800×g with no braking. Next, the mononuclear cell layer at the plasma-Ficoll interface was moved into a new 50 ml tube and washed with PBS buffer and red blood cell lysis buffer at RT for 5 min. The isolated PBMCs were used on the day of isolation or placed at −80° C. for storage. Two million fresh or thawed PBMCs were transferred to each well of a round-bottom 96-well culture plate (Thermo Fisher Scientific) in 200 μL of RPMI medium containing 10% FBS. The thawed PBMCs were recovered for 2 h at 37° C. with 5% C02. In some experiments, PBMCs were treated with different concentrations of ES2 (Sigma Aldrich) or 0.25% DMSO (the vehicle for ES2 at the highest concentration; ATCC, Manassas, VA) for 1-2 h during recovery stage. The fresh and recovered cells were then cultured with 1 μg/ml R848, LPS, or medium alone for 4 h. For TCR-independent T cell stimulation, PBMCs were cultured in RPMI medium containing 10% FBS in the presence of phorbol 12-myristate 13-acetate (PMA) (50 ng/ml) and ionomycin (1 μM) for a total of 4 h at 37° C. After incubation, the cells were washed with wash buffer in PBS containing 2% FBS and 1 mM EDTA prior to staining.
Flow cytometry methods. Single-cell suspensions were centrifuged at 450×g for 7 min, resuspended in ice-cold staining buffer (1×PBS with 2% FBS), and placed in a 96-well round-bottom plate (Thermo Fisher Scientific). After incubation with human Fe receptor blocking solution (Biolegend, San Diego, CA) at 4° C. for 15 min, cells were stained with a mixture of fluorescent surface antibodies at 4° C. for 30 min. For intracellular staining, the cells were fixed with IC Fixation Buffer (eBiosciences™, Thermo Fisher Scientific) at 4° C. for 30 min followed by incubation with fluorescent intracellular antibody cocktail in 1× Intracellular Fixation & Permeabilization Buffer (eBiosciences™, Thermo Fisher Scientific) at 4° C. for 30 min. The full list of fluorescent antibodies used is in Table 1 below. DAPI was added to the unfixed cells with surface staining at a final concentration of 1 μg/ml immediately before sample acquisition. The stained samples were then acquired on a FACSCelesta™ flow cytometer (BO Biosciences) using BO FACSDiva software version 8.0.2 (BO Biosciences). All data were analyzed using FlowJo 10.5.3 (BO Biosciences).
Methods. Flow cytometry and qRT-PCR were utilized as described in Example 1.

blood myeloid cells = assay: Mass cytometry (CyTOF) of surface ACE2 in whole blood myeloid cells stimulated ex vivo with R848; format: cell-based, human; conditions: 4 h ex vivo, COVID-19 patients and healthy controls, mean±SEM
Hela cells = conditions: cited from earlier work
[1] = test system: ACE2 translocation to the cell surface of CD14+ monocytes; assay: Flow cytometry of ACE2 surface expression in PBMCs pre-treated with ES2 before R848 or LPS; format: cell-based, human; conditions: PBMCs pre-treated with ES2 1-2 h, then R848 or LPS 4 h
Description: Bars represent mean±SEM of biologically independent samples, (n=3/group for 40 μM ES2 condition; n=4/group for all other conditions).
For ex vivo stimulation assays analyzed by flow cytometry, fresh PBMCs were isolated from CPT tubes using a standard protocol. Briefly, whole blood cells were diluted with Ca^2+-free and Mg^2+-free PBS buffer (Corning, NY) containing 2% fetal bovine serum (FBS, R&D Systems, Minneapolis, MN) and 2 mM EDTA (VWR Life Science, Radnor, PA) and slowly overlaid onto Ficoll-Paque™ (GE healthcare, Chicago, IL) at 2:1 ratio by volume. The samples were centrifuged at RT for 20 min at 800×g with no braking. Next, the mononuclear cell layer at the plasma-Ficoll interface was moved into a new 50 ml tube and washed with PBS buffer and red blood cell lysis buffer at RT for 5 min. The isolated PBMCs were used on the day of isolation or placed at −80° C. for storage. Two million fresh or thawed PBMCs were transferred to each well of a round-bottom 96-well culture plate (Thermo Fisher Scientific) in 200 μL of RPMI medium containing 10% FBS. The thawed PBMCs were recovered for 2 h at 37° C. with 5% C02. […]
Flow cytometry methods. […] All data were analyzed using FlowJo 10.5.3 (BO Biosciences). […]

Molecule | ACE2+ TMPRSS2+ cDCs (PBMCs) | cell surface ACE2 localization in cDCs (PBMCs) | surface expression of TMPRSS2 in cDCs (PBMCs) | surface expression of ACE2 in CD14+ classic monocytes (blood myeloid cells) | recycling of endocytosed transferrin to the plasma membrane (Hela cells) | rapid translocation of ACE2 to the monocyte cell surface [1]
lipopolysaccharide [LPS] | 1.1%±0.21 | 8.9%±0.98 | 3.2%±0.87 | – | – | –
CCOCc1nc2c(N)nc3ccccc3c2n1CC(C)(C)O [R848, resiquimod] | 1.1%±0.21 | 8.9%±0.98 | 3.2%±0.87 | 11.0±2.7% | – | –
COc1cc(/C=N/NC(=O)c2cccc(F)c2)cc(I)c1O [ES2, 3-fluoro-benzoic acid, (2E)-2-[(4-hydroxy-3-iodo-5-methoxyphenyl)methylene]hydrazide] | – | – | – | – | inhibits | blocked

— patent publication US20250268848A1, “COMPOSITIONS COMPRISING ENDOSIDIN 2 FOR REDUCING SARS-COV-2 INFECTION” (HENRY FORD HEALTH SYSTEM, priority 2021, published 2025)
